Experimental data from patent US11505586B2, “Interaction of Draxin and γ-netrins” (Max-Planck-Gesellschaft zur Foerderung der Wissenschaften …, priority 2014, dated 2022).
Blank lines part the entries; values can stand above or below the substance they belong to.

What was measured:
Netrin-3 = target: T1, Netrin-3 (Homo sapiens, UniProt O00634); test: AVEXIS pairwise binding screen, human proteins; details: both bait/prey orientations
T1 construct: made in house; host or cells: HEK293-6E (general AVEXIS method)
T1 sequence (O00634 28-580): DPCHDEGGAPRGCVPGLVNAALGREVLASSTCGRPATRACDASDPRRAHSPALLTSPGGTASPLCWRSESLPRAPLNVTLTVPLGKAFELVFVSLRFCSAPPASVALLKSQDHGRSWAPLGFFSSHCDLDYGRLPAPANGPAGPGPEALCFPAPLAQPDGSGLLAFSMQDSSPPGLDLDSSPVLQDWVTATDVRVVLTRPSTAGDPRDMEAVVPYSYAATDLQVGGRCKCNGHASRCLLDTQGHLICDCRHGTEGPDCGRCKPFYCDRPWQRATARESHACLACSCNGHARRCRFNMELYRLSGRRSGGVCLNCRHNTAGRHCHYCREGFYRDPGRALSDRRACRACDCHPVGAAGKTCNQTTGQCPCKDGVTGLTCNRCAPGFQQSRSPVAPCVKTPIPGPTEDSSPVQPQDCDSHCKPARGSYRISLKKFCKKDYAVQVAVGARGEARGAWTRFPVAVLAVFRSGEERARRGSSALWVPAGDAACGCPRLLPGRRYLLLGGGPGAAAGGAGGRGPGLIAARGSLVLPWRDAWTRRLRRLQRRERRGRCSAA
Source text: (§1) AVEXIS was used to test pairwise binding events in both bait/prey orientations between human DRAXIN, the derived 21 amino acid peptide, human Netrin family members, and two representative Netrin receptors (DCC, UNC5B). The Matn4-bait served as an internal prey-protein control and was used for normalization of the A486 nm values; conditioned medium (CM) serves as negative control; n=3.
(§2) To determine the binding specificity of DRAXIN/Netrin interactions, we carried out a pairwise binding screen between human DRAXIN and human Netrin family members. Except Netrin-5, we included all human Netrin family members consisting of two secreted γ-Netrins (Netrin-1 and Netrin-3) and one secreted (Netrin-4) and two GPI-linked β-Netrins (Netrin-G1 and Netrin-G2) in our binding study. Human DRAXIN and a 21 amino acid Netrin binding fragment derived thereof (SEQ ID NO.: 1) bound to Netrin-1 and Netrin-3 but not to human β-Netrin family members (FIG. 13).

[1] = test system: human β-Netrin family members; test: AVEXIS pairwise binding screen, human proteins; details: Netrin-4, Netrin-G1, Netrin-G2
Source text: as §1, §2

Netrin-1 = target: T2, Netrin-1 (Homo sapiens, UniProt O95631); test: AVEXIS pairwise binding screen, human proteins; details: both bait/prey orientations
T2 construct: made in house; host or cells: HEK293-6E (general AVEXIS method)
Source text: as §1, §2

Netrin1a [2] = test: AVEXIS domain mapping with monomeric prey proteins; type: binding, zebrafish; details: monomeric preys
Description: For the binding interface mapping experiments we used monomeric prey proteins. The concentration of the monomeric preys has been determined as described for the AVEXIS assay (β ? lactamase enzymatic activity). […] Both prey and bait orientations were tested in the domain mapping screen and two repeats for each orientation had been carried out.
To map down the Netrin1a binding region in DraxinA we generated a series of DraxinA truncations and deletions and tested them for binding against Netrin1a (FIG. 4).

Netrin1a [3] = test: AVEXIS extracellular protein-protein interaction screen; type: binding, zebrafish; details: prey against 141 bait proteins, bait against 191 prey proteins
Source text: To detect extracellular protein-protein interactions in a high-throughput manner we used the AVEXIS assay as described in Bushell et al. (Bushell et al., 2008) with minor modifications.
In brief: A zebrafish protein library enriched for mainly in neuronal tissues expressed secreted proteins and extracellular domains of cell surface proteins has been assembled. The library consists of prey and bait proteins. Preys are composed of the extracellular domain (ECD) of interest followed by a CD4 tag (rat Cd4d3+4) and a pentamerization domain derived from the rat Comp protein followed by β-lactamase. For the bait proteins the ECDs are fused to a CD4 tag and a biotinylation peptide. […] The proteins in the supernatants have been quantified and normalized.
The bait proteins have been immobilized on streptavidin coated 96 well microtiter plates (one bait/well) and incubated for 1 hour at room temperature. […] Then the absorbance at 486 nm of each well has been measured using a μQuant spectrophotometer (BIO-TEK Instruments, INC). […]
In the primary screen interactions were ‘called’ if the absorbance (at 486 nm) of a well after 1 h of incubation was ≥0.1 and 3 Sigma above the standard deviations of the mean of all wells. All interactions detected in the primary screen have been retested in a validation screen by using independently produced batches of proteins.

Islr2 = test: Vasn/Islr2 interaction used to adjust the AVEXIS screen; type: binding; details: Vasn (Slit-like2)/Islr2, in preparation
Description: The bait proteins have been immobilized on streptavidin coated 96 well microtiter plates (one bait/well) and incubated for 1 hour at room temperature. After 3 wash steps using HBS as wash buffer the baits have been probed by 50 μl of normalized prey proteins. After one-hour incubation the non-bound preys have been washed away by 2 washes with HBST (0.05% Tween) followed by two HBS washes. Then 50 μl of nitrocefin/well (0.1 mg/ml) has been added and incubated for 1 h at room temperature. Then the absorbance at 486 nm of each well has been measured using a μQuant spectrophotometer (BIO-TEK Instruments, INC). As a positive control for the prey proteins we used the Matn4 ECD as mono-biotinylated bait protein.

binding to Netrin-3 (Netrin-3): bound
binding to human β-Netrin family members [1]: not
binding to Netrin-1 (Netrin-1): bound
Substance: EVMPTLDMALFDWTDYEDLKP (listed as Homo sapiens) [SEQ ID NO.: 1]

Substance: EVMPTLDMTLFDWTDYEDMKP (Danio rerio) [21aa DraxinA derived peptide, 21aa fragment (aa232-252) of zebrafish DraxinA, as AVEXIS prey or bait]
binding of DraxinA truncations and deletions to Netrin1a (Netrin1a [2]): sufficient for the binding
binding specificity against protein library (Netrin1a [3]; listed as DraxinAaa232-252-bait): only interacted with the Ntn1a-prey
binding specificity against protein library (Netrin1a [3]; listed as DraxinAaa232-252-prey): only bound to the Ntn1a-bait

Kd (Islr2): 12 µM
Substance: Vasn: Vasn (Slit-like2), binding partner of Islr2, reference weak interaction
